# Laboratory results: patent US7772180B2, “Hepatitis C virus inhibitors” (Bristol-Myers Squibb Company, priority 2006, dated 2010)
# pEC50, pIC50: −log10 of the molar value. Where two headings read alike, the source gives them in different places.
# Columns and labels:
# [1] = tested on: HCV replicon (strain 1b) in HUH-7 cells; assay: HCV replicon FRET assay; type: cell-based, Hepatitis C virus; details: Hepatitis C virus
# [2] = biological target: T1, human neutrophil elastase (HNE) (Homo sapiens, UniProt P08246); assay: Specificity assay, human neutrophil elastase; type: biochemical; details: read-out: HLE activity in the specificity assays (IC50)
# T1 construct: purchased Sigma, EMDbiosciences
# T1 sequence (P08246 30-267): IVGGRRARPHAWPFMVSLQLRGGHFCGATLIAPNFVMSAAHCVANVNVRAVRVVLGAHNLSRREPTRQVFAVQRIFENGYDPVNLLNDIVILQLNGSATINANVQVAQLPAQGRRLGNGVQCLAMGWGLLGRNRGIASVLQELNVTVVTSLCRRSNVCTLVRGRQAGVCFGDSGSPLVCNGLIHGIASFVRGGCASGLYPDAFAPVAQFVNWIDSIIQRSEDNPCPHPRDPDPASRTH
# Method: (§1) The specificities of compounds of the present disclosure were determined against a variety of serine proteases: human neutrophil elastase (HNE), porcine pancreatic elastase (PPE) and human pancreatic chymotrypsin and one cysteine protease: human liver cathepsin B. In all cases a 96-well plate format protocol using either colorimetric p-nitroaniline (pNA) substrate or fluorometric Amino-Methyl-Coumarin (AMC) specific for each enzyme was used as described previously (PCT Patent Application No. WO 00/09543) with some modifications to the serine protease assays. All enzymes were purchased from Sigma, EMDbiosciences while the substrates were from Bachem, Sigma and EMDbiosciences.
# (§2) The pNA assay for Chymotrypsin included a 1 h enzyme-inhibitor pre-incubation at room temperature followed by addition of substrate and hydrolysis to ˜15% conversion as measured on a Spectramax Pro microplate reader. Compound concentrations varied from 100 to 0.4 μM depending on their potency. Cathepsin B, HNE, and PPE assays each was initiated by addition of substrate to enzyme-inhibitor pre-incubated for 10 min at room temperature and hydrolysis to 15% conversion as measured on cytofluor.
# (§3) 50 mM Tris-HCl, pH 8.0, 50 mM NaCl, 0.1 mM EDTA, 3% DMSO, 0.02% Tween-20, 5 μM succ-AAPV-AMC and 20 nM HNE or 8 nM PPE;
# (§4) The percentage of inhibition was calculated using the formula: [1−((UVinh−UVblank)/(UVctl−UVblank))]×100 […]
# [3] = biological target: T2, porcine pancreatic elastase (PPE) (Sus scrofa, UniProt P00772); assay: Specificity assay, porcine pancreatic elastase; type: biochemical; details: read-out: PPE activity in the specificity assays (IC50)
# T2 construct: purchased Sigma, EMDbiosciences
# Method: as §1, §2, §3, §4
# human liver cathepsin B = biological target: T3, human liver cathepsin B (Homo sapiens, UniProt P07858); assay: Specificity assay, cathepsin B; type: biochemical; details: read-out: Cathepsin B activity in the specificity assays (IC50)
# T3 construct: purchased Sigma, EMDbiosciences; host or cells: human liver
# Method: as §1
# as §2, with “cytofluor. […]” for “cytofluor.”
# as §4
# T2 sequence (P00772 27-266): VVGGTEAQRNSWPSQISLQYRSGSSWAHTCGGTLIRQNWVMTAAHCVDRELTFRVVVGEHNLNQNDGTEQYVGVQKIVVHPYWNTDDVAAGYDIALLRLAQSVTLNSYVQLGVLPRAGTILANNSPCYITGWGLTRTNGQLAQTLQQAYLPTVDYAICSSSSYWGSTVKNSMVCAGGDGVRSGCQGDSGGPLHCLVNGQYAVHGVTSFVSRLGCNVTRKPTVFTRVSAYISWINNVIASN
compound,measurement,setting,value
"C=C[C@@H]1C[C@]1(NC(=O)[C@@H]1C[C@@H](Oc2nc(N(C)C)cc3cc(OC)ccc23)CN1C(=O)C(Nc1cc(C)cc(C)n1)C(C)(C)C)C(=O)NS(=O)(=O)C1CC1 (single isomer, unassigned) [Compound 18]",pEC50,"[1]; Huh-7, read-out: EC50 in the replicon FRET assay, replicon FRET assay",8.05
same,pEC50,"[1]; Huh-7, read-out: HCV Pro Replicon (EC50), HCV replicon cell assay, activity range class",7.00 to 8.52
same,pIC50,[2],< 5.81
same,pIC50,[3],< 5.81
same,pIC50,human liver cathepsin B,< 4.30
